Test results as given in ChEMBL document CHEMBL4177696, “Identification of a diverse synthetic abietane diterpenoid library and insight into the structure-activity relationships for antibacterial activity” (Bioorg Med Chem Lett, 2017).
In brackets after ≈: the same amount, converted by molar mass.

What was measured:
Format in all cases: functional
[1] = tested on: Staphylococcus aureus; assay: Antibacterial activity against Staphylococcus aureus measured after 24 hrs
[2] = tested on: Bacillus subtilis; assay: Antibacterial activity against Bacillus subtilis measured after 24 hrs
[3] = tested on: Escherichia coli; assay: Antibacterial activity against Escherichia coli measured after 24 hrs
[4] = tested on: Pseudomonas fluorescens; assay: Antibacterial activity against Pseudomonas fluorescens measured after 24 hrs

MIC [1] | MIC [2] | MIC [3] | MIC [4] | SMILES
75 µg/mL (≈ 238 µM) | 100 µg/mL (≈ 318 µM) | 100 µg/mL (≈ 318 µM) | 100 µg/mL (≈ 318 µM) | COC(=O)[C@]1(C)CCC[C@]2(C)c3ccc(C(C)C)cc3CC[C@@H]12 [METHYL DEHYDROABIETATE]
50 µg/mL (≈ 97.1 µM) | 25 µg/mL (≈ 48.6 µM) | 25 µg/mL (≈ 48.6 µM) | 50 µg/mL (≈ 97.1 µM) | COC(=O)[C@]1(C)CCC[C@]2(C)c3ccc(C(C)C)c(NC(=O)Cn4cc(-c5ccccc5)nn4)c3CC[C@@H]12
25 µg/mL (≈ 41.8 µM) | 50 µg/mL (≈ 83.5 µM) | 50 µg/mL (≈ 83.5 µM) | 75 µg/mL (≈ 125 µM) | COC(=O)[C@]1(C)CCC[C@]2(C)c3ccc(C(C)C)c(NC(=O)Cn4cc(-c5ccc(OC(F)(F)F)cc5)nn4)c3CC[C@@H]12
100 µg/mL (≈ 352 µM) | 100 µg/mL (≈ 352 µM) | 100 µg/mL (≈ 352 µM) | 100 µg/mL (≈ 352 µM) | COc1cccc2c1CC[C@H]1C3=C(CC[C@]21C)C(=O)OC3
0.8 µg/mL (≈ 1.55 µM) | 6.3 µg/mL (≈ 12.2 µM) | 25 µg/mL (≈ 48.5 µM) | 3.1 µg/mL (≈ 6.01 µM) | COC(=O)[C@]1(C)CCC[C@]2(C)c3ccc(C(C)C)c(NC(=O)Cn4cc(-c5ccncc5)nn4)c3CC[C@@H]12
50 µg/mL (≈ 146 µM) | 75 µg/mL (≈ 219 µM) | 50 µg/mL (≈ 146 µM) | 75 µg/mL (≈ 219 µM) | COc1c(C(C)C)ccc2c1CC[C@H]1C3=C(CC[C@]21CO)C(=O)OC3
100 µg/mL (≈ 333 µM) | 100 µg/mL (≈ 333 µM) | 100 µg/mL (≈ 333 µM) | 100 µg/mL (≈ 333 µM) | C=C1[C@H](O)CC[C@]2(C)c3ccc(C(C)C)c(OC)c3CC[C@@H]12
12.5 µg/mL (≈ 21.8 µM) | 12.5 µg/mL (≈ 21.8 µM) | 6.3 µg/mL (≈ 11 µM) | 25 µg/mL (≈ 43.7 µM) | COC(=O)c1ccc(-c2cn(CC(=O)Nc3c(C(C)C)ccc4c3CC[C@H]3[C@](C)(C(=O)OC)CCC[C@]43C)nn2)cc1
50 µg/mL (≈ 104 µM) | 75 µg/mL (≈ 157 µM) | 6.3 µg/mL (≈ 13.2 µM) | 75 µg/mL (≈ 157 µM) | COC(=O)[C@]1(C)CCC[C@]2(C)c3ccc(C(C)C)c(NC(=O)Cn4cc(C5CC5)nn4)c3CC[C@@H]12
25 µg/mL (≈ 42.1 µM) | 25 µg/mL (≈ 42.1 µM) | 12.5 µg/mL (≈ 21.1 µM) | 12.5 µg/mL (≈ 21.1 µM) | COC(=O)[C@]1(C)CCC[C@]2(C)c3ccc(C(C)C)c(NC(=O)Cn4cc(-c5cccc(Br)c5)nn4)c3CC[C@@H]12
75 µg/mL (≈ 147 µM) | 100 µg/mL (≈ 196 µM) | 75 µg/mL (≈ 147 µM) | 100 µg/mL (≈ 196 µM) | COC(=O)[C@]1(C)CCC[C@]2(C)c3ccc(C(C)C)c(NC(=O)Cn4cc([Si](C)(C)C)nn4)c3CC[C@@H]12
100 µg/mL (≈ 286 µM) | 75 µg/mL (≈ 215 µM) | 100 µg/mL (≈ 286 µM) | 25 µg/mL (≈ 71.5 µM) | COc1c(C(C)C)ccc2c1CC[C@H]1[C@@H](O)CCC[C@]21CO[N+](=O)[O-]
6.3 µg/mL (≈ 11.6 µM) | 50 µg/mL (≈ 91.8 µM) | 12.5 µg/mL (≈ 22.9 µM) | 25 µg/mL (≈ 45.9 µM) | COC(=O)[C@]1(C)CCC[C@]2(C)c3ccc(C(C)C)c(NC(=O)Cn4cc(-c5ccc(OC)cc5)nn4)c3CC[C@@H]12
25 µg/mL (≈ 83.8 µM) | 12.5 µg/mL (≈ 41.9 µM) | 6.3 µg/mL (≈ 21.1 µM) | 25 µg/mL (≈ 83.8 µM) | C=C1C(=O)CC[C@]2(C)c3ccc(C(C)C)c(OC)c3CC[C@@H]12
50 µg/mL (≈ 144 µM) | 25 µg/mL (≈ 72 µM) | 50 µg/mL (≈ 144 µM) | 75 µg/mL (≈ 216 µM) | COc1c(C(C)C)ccc2c1CC[C@H]1C(=O)CCC[C@]21CO[N+](=O)[O-]
0.8 µg/mL | 0.8 µg/mL | 1.6 µg/mL | 0.8 µg/mL | NCC[C@H](O)C(=O)N[C@@H]1C[C@H](N)[C@@H](O[C@H]2O[C@H](CN)[C@@H](O)[C@H](O)[C@H]2O)[C@H](O)[C@H]1O[C@H]1O[C@H](CO)[C@@H](O)[C@H](N)[C@H]1O.O=S(=O)(O)O.O=S(=O)(O)O [AMIKACIN SULFATE]
100 µg/mL (≈ 290 µM) | 100 µg/mL (≈ 290 µM) | 50 µg/mL (≈ 145 µM) | 100 µg/mL (≈ 290 µM) | COc1c(C(C)C)ccc2c1CC[C@H]1[C@@H]3COC(=O)[C@]3(O)CC[C@]21C
25 µg/mL (≈ 43.5 µM) | 100 µg/mL (≈ 174 µM) | 75 µg/mL (≈ 130 µM) | 75 µg/mL (≈ 130 µM) | COC(=O)[C@]1(C)CCC[C@]2(C)c3ccc(C(C)C)c(NC(=O)Cn4cc(-c5cc(OC)cc(OC)c5)nn4)c3CC[C@@H]12
75 µg/mL (≈ 215 µM) | 100 µg/mL (≈ 287 µM) | 75 µg/mL (≈ 215 µM) | 100 µg/mL (≈ 287 µM) | COC(=O)[C@]1(C)CCC[C@@]2(C)[C@H]1CC=C1C(=O)[C@@](O)(C(C)C)CC[C@@H]12
25 µg/mL (≈ 63 µM) | 50 µg/mL (≈ 126 µM) | 25 µg/mL (≈ 63 µM) | 25 µg/mL (≈ 63 µM) | COc1ccc(COC[C@H]2[C@H](O)CC[C@]3(C)c4cccc(OC)c4CC[C@@H]23)cc1
100 µg/mL (≈ 292 µM) | 100 µg/mL (≈ 292 µM) | 100 µg/mL (≈ 292 µM) | 100 µg/mL (≈ 292 µM) | COc1c(C(C)C)ccc2c1CC[C@@]1(O)C3=C(CC[C@]21C)C(=O)OC3
75 µg/mL (≈ 151 µM) | 50 µg/mL (≈ 101 µM) | 75 µg/mL (≈ 151 µM) | 50 µg/mL (≈ 101 µM) | COC(=O)c1cn(CC(=O)Nc2c(C(C)C)ccc3c2CC[C@H]2[C@](C)(C(=O)OC)CCC[C@]32C)nn1

SMILES | MIC [1] | MIC [2] | MIC [3] | MIC [4]
CCn1cc(C(=O)O)c(=O)c2cc(F)c(N3CCNCC3)cc21 [NORFLOXACIN] | 1.6 µg/mL (≈ 5.01 µM) | 1.6 µg/mL (≈ 5.01 µM) | 3.1 µg/mL (≈ 9.71 µM) | 1.6 µg/mL (≈ 5.01 µM)
CC(C)c1ccc2c(c1O)CC[C@H]1C3=C(CC[C@]21C)C(=O)OC3 [TRIPTOPHENOLIDE] | 75 µg/mL (≈ 240 µM) | 50 µg/mL (≈ 160 µM) | 100 µg/mL (≈ 320 µM) | 75 µg/mL (≈ 240 µM)
